From patent US12215126B2, “Cationic steroidal antimicrobial compounds with endogenous groups” (Brigham Young University, priority 2020, dated 2025)
In brackets after ≈: the same amount, converted by molar mass. Read-outs that look alike come from different tables or passages of the source.

Key:
Experiment in all cases: Antimicrobial activity, minimum inhibitory concentration (MIC)
Assay type in all cases: cell-based
Candida albicans 90028 = tested on: Candida albicans 90028
Procedure: (§1) The antimicrobial activity of CSA-148 was determined in comparison to CSA-44, a CSA compound known to have very high antimicrobial activity compared to other CSAs. The microbes used in the comparative test was were Candida albicans 90028, methicillin resistant Staphylococcus aureus (MRSA) BAA-41, and Pseudomonas aeruginosa (PA01 47085).
The measured MICs for C. albicans 90028 were based on 100% inhibition of growth (i.e. no cloudiness). Judging by 50% inhibition, which is more difficult but is typical for fungal MICs, the MIC for CSA-44 relative to C. albicans can be extrapolated to 4 μg/ml, and the MIC for CSA-148 relative to C. albicans can be extrapolated to 2 μg/ml.

[1] = tested on: Pseudomonas aeruginosa (PA01 47085)
Procedure: as §1

[2] = tested on: methicillin resistant Staphylococcus aureus (MRSA) BAA-41
Procedure: as §1

| SMILES | MIC (Candida albicans 90028; C. albicans 90028, based on 100% inhibition of growth (no cloudiness)) [mg/L] | MIC (Candida albicans 90028; C. albicans, judging by 50% inhibition, extrapolated) [mg/L] | MIC [1] [mg/L] | MIC [2] [mg/L] | MIC (Candida albicans 90028; Candida albicans, 90028, C. albicans 90028, based on 100% inhibition of growth (no cloudiness), read-out: MIC) [mg/L] | MIC (Candida albicans 90028; Candida albicans, 90028, C. albicans, judging by 50% inhibition, extrapolated, read-out: MIC) [mg/L] | MIC ([1]; Pseudomonas aeruginosa, read-out: MIC) [mg/L] | MIC ([2]; Staphylococcus aureus, read-out: MIC) [mg/L] |
| --- | --- | --- | --- | --- | --- | --- | --- | --- |
| CCCCCCCCOC(=O)CC[C@@H](C)[C@H]1CC[C@H]2[C@@H]3[C@H](OC(=O)CCN)C[C@@H]4C[C@H](OC(=O)CCN)CC[C@]4(C)[C@H]3C[C@H](OC(=O)CCN)[C@]12C [CSA-44] | 8 (≈ 10.9 µM) | 4 (≈ 5.45 µM) | 2 (≈ 2.72 µM) | 2 (≈ 2.72 µM) | – | – | – | – |
| CC(C)=CCC/C(C)=C/COC(=O)CC[C@@H](C)[C@H]1CC[C@H]2[C@@H]3[C@H](OC(=O)CCN)C[C@@H]4C[C@H](OC(=O)CCN)CC[C@]4(C)[C@H]3C[C@H](OC(=O)CCN)[C@]12C [CSA-148] | – | – | – | – | 4 (≈ 5.28 µM) | 2 (≈ 2.64 µM) | 2 (≈ 2.64 µM) | 2 (≈ 2.64 µM) |
